Assay results from patent US7018989B2, “Chemical compounds” (University College Cardiff Consultants, LTD, priority 1995, dated 2006).
Read-outs that look alike come from different tables or passages of the source.

Experiments:
HIV-2 [1] = assay: Inhibition of HIV-2 in MT4 cells; assay type: cell-based; conditions: Table 6; mean of two or more repeat experiments; read-out: HIV2 MT4: EC50 for inhibition of HIV-2 in MT4 cells
Procedure: (§1) Cells were infected with HIV-1 as previously described [Balzarini et al. AIDS (1991), 5, 21–28]. Briefly, 5×10^5 cells per milliliter were infected with HIV-1 or HIV-2 at 100 CCID50 (50% cell culture infective dose) per milliliter of cell suspension. Then 100 μL of the infected cell suspension was transferred to microtiter plate wells and mixed with 100 μL of the appropriate dilutions of the test compounds. After 4 days giant cell formation was recorded microscopically in the HIV-infected cell cultures [CEM], and after 5 days the number of viable cells was determined by trypan blue staining of the HIV-infected cell cultures [MT4].
(§2) The data columns are, in order: • HIV1 MT4: EC50 in μM for inhibition of HIV-1 in MT4 cells. • HIV2 MT4: EC50 in μM for inhibition of HIV-2 in MT4 cells. • CC50 MT4: CC50 in μM for toxicity to MT-4 cells. • HIV1 CEM: EC50 in μM for inhibition of HIV-1 in CEM cells. • HIV2 CEM: EC50 in μM for inhibition of HIV-2 in CEM cells. • HIV2 CEM-TK-: EC50 in μM for inhibition of HIV-2 in CEM/TK^− cells. • CC50 CEM: CC50 in μM for toxicity to CEM cells. • EC50 MSV: EC50 in μM for inhibition of MSV • MCC MSV: Minimum cytotoxic concentration in MSV assay

HIV-1 [2] = assay: Inhibition of HIV-1 in MT4 cells; assay type: cell-based; conditions: Table 6; mean of two or more repeat experiments; read-out: HIV1 MT4: EC50 for inhibition of HIV-1 in MT4 cells
Procedure: as §1, §2

HIV-2 [3] = assay: Inhibition of HIV-2 in CEM cells (giant cell formation); assay type: cell-based
Summary of the method: (§3)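 Infection used 100 CCID50 per mL on 5×10^5 cells/mL, followed by exposure to serial compound dilutions. Read-out: microscopic giant cell scoring after 4 days (CEM); trypan blue viable cell count after 5 days (MT-4).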

HIV-2 [4] = assay: Inhibition of HIV-2 in CEM/TK- cells; assay type: cell-based
Summary of the method: as §3

MT-4 cells = assay: Toxicity to MT-4 cells; assay type: cell-based, human; conditions: Table 6; mean of two or more repeat experiments; read-out: CC50 MT4: CC50 for toxicity to MT-4 cells
Procedure: as §1, §2

HIV-1 [5] = assay: microbe, parasite or virus in culture; conditions: read-out: HIV1 CEM: EC50 for inhibition of HIV-1 in CEM cells
Summary of the method: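 Giant cell formation, recorded under the microscope on day 4, served as the end point for CEM cells, while MT-4 viability was determined by trypan blue exclusion on day 5. Cell suspensions (5×10^5/mL) received virus at 100 CCID50/mL before compound addition.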

C8166 cells = assay: Toxicity in C8166 cells (MTT-Formazen); assay type: cell-based; conditions: Table 3
Procedure: (§4) C8166 cells. Cells were grown in RPMI 1640 with 10% calf serum. 4×10^4 cells per microtiter plate well were mixed with 5-fold dilutions of compound prior to addition of 10 CCID50 units of III-B strain of HIV-1 and incubated for 5–7 days (Betbeder et al. Antiviral Chem. Chemother. 1, 241–247, 1990). Formation of syncytia was examined from 2 days post-infection. Culture fluid was collected at 5–7 days and gp120 antigen production measured by ELISA (Mahmood and Hay, J. Immunol. Meth., 151, 9–13, 1992). […] Cell viability of infected and uninfected cells were assessed by the MTT-Formazen method (Pauwels et al. J. Virol. Meth. 20, 309–321, 1988).
(§5) Each assay was carried out in duplicate, on at least two separate occasions, and data quoted are the average of each separate assay.

III-B strain of HIV-1 = assay: microbe, parasite or virus in culture; assay type: cell-based
Procedure: as §4, §5

CEM cells = assay: Toxicity to CEM cells; assay type: cell-based, human
Procedure: as §1, §2

MSV = assay: Inhibition of MSV (in vitro); assay type: cell-based, Moloney Sarcoma Virus; conditions: MSV
Source text: as §2

[6] = Minimum cytotoxic concentration in MSV assay; assay type: cell-based; conditions: MSV assay
Source text: The data columns are, in order: • HIV1 MT4: EC50 in μM for inhibition of HIV-1 in MT4 cells. • HIV2 MT4: EC50 in μM for inhibition of HIV-2 in MT4 cells. • CC50 MT4: CC50 in μM for toxicity to MT-4 cells. • HIV1 CEM: EC50 in μM for inhibition of HIV-1 in CEM cells. • HIV2 CEM: EC50 in μM for inhibition of HIV-2 in CEM cells. • HIV2 CEM-TK-: EC50 in μM for inhibition of HIV-2 in CEM/TK^- cells. • CC50 CEM: CC50 in μM for toxicity to CEM cells. • EC50 MSV: EC50 in μM for inhibition of […]: Minimum cytotoxic concentration in MSV assay

[7] = Table 6, mean of two or more repeat experiments, read-out: HIV2 CEM: EC50 for inhibition of HIV-2 in CEM cells
[8] = Table 6, mean of two or more repeat experiments, read-out: HIV2 CEM-TK-: EC50 for inhibition of HIV-2 in CEM/TK^− cells
[9] = Table 6, mean of two or more repeat experiments
[10] = HIV1 in C8166 cells, Table 3, read-out: Activity EC50
[11] = HIV2, Table 2, read-out: EC50 CEM TK^−
[12] = CEM cells, HIV-2, read-out: HIV2 CEM: EC50 for inhibition of HIV-2 in CEM cells
[13] = CEM/TK- cells, HIV-2, read-out: HIV2 CEM-TK-: EC50 for inhibition of HIV-2 in CEM/TK- cells

Row | SMILES | EC50 (HIV-2 [3]; [7]) | EC50 (HIV-2 [4]; [8]) | EC50 (HIV-1 [5]; [9]) | CC50 (C8166 cells) | Selectivity CC50/EC50 × 10^3 (III-B strain of HIV-1) | EC50 (III-B strain of HIV-1; [10]) | CC50 (CEM cells; [9]) | other results
1 | COC(=O)C(Cc1ccccc1)NP(=O)(OCC1C=CC(n2cc(C)c(=O)[nH]c2=O)O1)OCC(Cl)(Cl)Cl (stereo not drawn) [Compound 325] | 2 µM | 0.7 µM | 1 µM |  |  |  |  | EC50 (HIV-2 [1]): 0.5 µM; EC50 (HIV-1 [2]): 0.44 µM; CC50 (MT-4 cells): > 100 µM
2 | COC(=O)C(C)NP(=O)(OCC1C=CC(n2cc(C)c(=O)[nH]c2=O)O1)Oc1ccc(F)cc1 (stereo not drawn) [Compound 327, 2′,3′-dideoxy-2′,3′-didehydrothymidine 5′-(p-fluorophenylmethoxyalaninyl) phosphoramidate] |  |  |  | 200 µM | 62.5 × 10^3 | 0.0032 µM |  | 
3 | Cc1cn(C2C=CC(COP(=O)(NC(C)C(=O)OCc3ccccc3)Oc3ccccc3)O2)c(=O)[nH]c1=O (stereo not drawn) [Compound 730, 2′,3′-dideoxy-2′,3′-didehydrothymidine-5′-(phenyl N-benzyloxyalaninyl) phosphoramidate] | 0.016 µM | 0.06 µM | 0.016 µM | 400 µM |  | 0.0008 µM |  | EC50 (HIV-2 [3]; [11]): 0.016 µM; EC50 (HIV-2 [4]; [11]): 0.06 µM; EC50 (III-B strain of HIV-1; HIV1 in C8166, Table 2, read-out: EC50 C8166): 0.0008 µM
4 | Cc1cn(C2C=CC(COP(=O)(Oc3ccc(Br)cc3Br)N(C)C(C)C(=O)O)O2)c(=O)[nH]c1=O (stereo not drawn) [Compound 776, 2′,3′-dideoxy-2′,3′-didehydrothymidine-5′-(2,4-dibromophenyl N-methylalaninyl) phosphoramidate] | 0.055 µM | 0.025 µM | 0.04 µM | 100 µM | 125 × 10^3 | 0.0008 µM | 16 µM | 
5 | CCCCCCOC(=O)[C@H](C)NP(=O)(OCC1C=CC(n2cc(C)c(=O)[nH]c2=O)O1)Oc1ccccc1 (stereo partly drawn) [Compound 862, 2′,3′-dideoxy-2′,3′-didehydrothymidine 5′-(phenyl N-hexyloxyalaninyl) phosphoramidate] | 0.055 µM | 0.033 µM | 0.06 µM | 500 µM | 417 × 10^3 | 0.0012 µM | 48 µM | 
6 | Cc1cn(C2C=CC(COP(=O)(NC(C)C(=O)OCc3ccccc3)Oc3ccc(Br)cc3Br)O2)c(=O)[nH]c1=O (stereo not drawn) [Compound 868, 2′,3′-dideoxy-2′, 3′-didehydrothymidine-5′-(2,4-dibromophenyl N-benzylalaninyl) phosphoramidate] | 0.2 µM | 0.2 µM | 0.2 µM | 500 µM | 156 × 10^3 | 0.0032 µM | 50 µM | 
7 | Cc1cn(C2C=CC(COP(=O)(NC(Cc3ccccc3)C(=O)OCc3ccccc3)Oc3ccccc3)O2)c(=O)[nH]c1=O (stereo not drawn) [Compound 877, 2′,3′-dideoxy-2′,3′-didehydrothymidine-5′-(phenyl N-methoxyglycinyl) phosphoramidate] | 0.6 µM | 0.24 µM | 0.6 µM | 80 µM | 267 × 10^3 | 0.0003 µM | 44 µM | 
8 | Cc1cn([C@H]2C=C[C@@H](COP(=O)(NC(Cc3ccccc3)C(=O)OC(C)(C)C)Oc3ccccc3)O2)c(=O)[nH]c1=O (stereo partly drawn) [Compound 878, 2′,3′-dideoxy-2′,3′-didehydrothymidine-5′-(phenyl N-tert-butylphenylalaninyl) phosphoramidate] | 2 µM | 0.65 µM | 2 µM | 150 µM | 0.9 × 10^3 | 0.16 µM | 80 µM | 
9 | Cc1cn(C2C=CC(COP(=O)(N[C@@H](C)C(=O)OC3CCCCC3)Oc3ccccc3)O2)c(=O)[nH]c1=O (stereo partly drawn) [Compound 892, 2′,3′-dideoxy-2′,3′-didehydrothymidine 5′-(phenyl N-cyclohexyloxyalaninyl) phosphoramidate] | 0.075 µM | 0.09 µM | 0.065 µM | 500 µM | 312 × 10^3 | 0.0016 µM | 51.4 µM | 
10 | Cc1cn([C@H]2C=C[C@@H](COP(=O)(NC(C)C(=O)OC(C)(C)C)Oc3ccccc3)O2)c(=O)[nH]c1=O (stereo partly drawn) [Compound 893, 2′,3′-dideoxy-2′,3′-didehydrothymidine 5′-(phenyl N-tButyloxyalaninyl) phosphoramidate] | 1.1 µM | 0.74 µM | 0.85 µM | > 1000 µM | >5.0 × 10^3 | 0.2 µM | ≥ 250 µM | 
11 | Nc1ncnc2c1ncn2C1CCC(CO)O1 (stereo not drawn) [Cpd 1069] |  |  |  |  |  |  |  | EC50 (MSV): 24.3 µM; EC50 (HIV-2 [3]; [12]): 8 µM; EC50 (HIV-2 [4]; [13]): 17.5 µM; MCC MSV: Minimum cytotoxic concentration in MSV assay [6]: >100; CC50 (CEM cells; CEM cells): > 250 µM; EC50 (HIV-1 [5]; CEM cells, HIV-1): 4 µM
12 | Cc1cn(C2CC(N=[N+]=[N-])C(COP(=O)(O)NC(C)C(=O)O)O2)c(=O)[nH]c1=O (stereo not drawn) [Cpd 1071] |  |  |  |  |  |  |  | EC50 (MSV): > 250 µM; EC50 (HIV-2 [3]; [12]): 10 µM; EC50 (HIV-2 [4]; [13]): 250 µM; MCC MSV: Minimum cytotoxic concentration in MSV assay [6]: >100; CC50 (CEM cells; CEM cells): > 250 µM; EC50 (HIV-1 [5]; CEM cells, HIV-1): 115 µM
